Data on 2 molecules can be found in patent publication US20110218103A1, “Fluoroalkyl-substituted 2-amidobenzimidazoles” (BAYER CROPSCIENCE AG, priority 2010, published 2011).

One assay deals with Brassica napus (BRSNS). The assay is described as follows: Drought stress test on crop plants, spray application in greenhouse, visual damage rating. It counts as in vivo. The following applies: mean of three results. On the procedure:
Seeds of monocotyledonous and dicotyledonous crop plants were placed in sandy loam in wood-fiber pots, covered with soil and cultivated in a greenhouse under good growth conditions. The test plants were treated at the early leaf stage (BBCH10-BBCH13). To ensure uniform water supply before commencement of stress, the potted plants were supplied with the maximum amount of water immediately beforehand by dam irrigation and, after application, transferred in plastic inserts in order to prevent subsequent, excessively rapid drying. The inventive compounds, formulated in the form of wettable powders (WP), wettable granules (WG), suspension concentrates (SC) or emulsion concentrates (EC), were sprayed onto the green parts of the plants as an aqueous suspension at an equivalent water application rate of 600 l/ha with addition of 0.2% wetting agent (agrotin). Substance application was followed immediately by stress treatment of the plants (cold or drought stress). For cold stress treatment, the plants were kept under the following controlled conditions: Drought stress was induced by gradual drying out under the following conditions: “day”: 14 hours with illumination at 26° C. “night”: 10 hours without illumination at 18° C. The duration of the respective stress phases was guided mainly by the state of the untreated, stressed control plants and thus varies from crop to crop. It was ended (by re-irrigating or transfer to a greenhouse with good growth conditions) as soon as irreversible damage is observed on the untreated, stressed control plants. In the case of dicotyledonous crops, for example oilseed rape and soya, the duration of the drought stress phase was between 3 and 5 days, in the case of monocotyledonous crops, for example wheat, barley or corn, between 6 and 10 days. The duration of the cold stress phase varied between 12 and 14 days. The end of the stress phase was followed by an approx. 5-7-day recovery phase, during which the plants were once again kept under good growth conditions in a greenhouse. In order to rule out any influence of the effects observed by any fungicidal action of the test compounds, it was additionally ensured that the tests proceed without fungal infection and without infection pressure. After the recovery phase had ended, the intensities of damage were rated visually compared to untreated, unstressed controls of the same age (in the case of drought stress) or the same growth stage (in the case of cold stress). The intensity of damage was first assessed as a percentage (100%=plants have died, 0%=like control plants). These values were then used to calculate the efficacy of the test compounds (=percentage reduction in the intensity of damage as a result of substance application) by the following formula: [formula] EF: efficacy (%) DVus: damage value of the untreated, stressed control DVts: damage value of the plants treated with test compound The tables below list mean values in each case from three results of the same test. Effects of selected compounds of the formula (I) under drought stress: BRSNS=Brassica napus

The subject of assay [1] is Triticum aestivum (TRZAS). The description is as above. It counts as in vivo. The following applies: mean of three results. On the procedure:
Seeds of monocotyledonous and dicotyledonous crop plants were placed in sandy loam in wood-fiber pots, covered with soil and cultivated in a greenhouse under good growth conditions. The test plants were treated at the early leaf stage (BBCH10-BBCH13). To ensure uniform water supply before commencement of stress, the potted plants were supplied with the maximum amount of water immediately beforehand by dam irrigation and, after application, transferred in plastic inserts in order to prevent subsequent, excessively rapid drying. The inventive compounds, formulated in the form of wettable powders (WP), wettable granules (WG), suspension concentrates (SC) or emulsion concentrates (EC), were sprayed onto the green parts of the plants as an aqueous suspension at an equivalent water application rate of 600 l/ha with addition of 0.2% wetting agent (agrotin). Substance application was followed immediately by stress treatment of the plants (cold or drought stress). For cold stress treatment, the plants were kept under the following controlled conditions: Drought stress was induced by gradual drying out under the following conditions: “day”: 14 hours with illumination at 26° C. “night”: 10 hours without illumination at 18° C. The duration of the respective stress phases was guided mainly by the state of the untreated, stressed control plants and thus varies from crop to crop. It was ended (by re-irrigating or transfer to a greenhouse with good growth conditions) as soon as irreversible damage is observed on the untreated, stressed control plants. In the case of dicotyledonous crops, for example oilseed rape and soya, the duration of the drought stress phase was between 3 and 5 days, in the case of monocotyledonous crops, for example wheat, barley or corn, between 6 and 10 days. The duration of the cold stress phase varied between 12 and 14 days. The end of the stress phase was followed by an approx. 5-7-day recovery phase, during which the plants were once again kept under good growth conditions in a greenhouse. In order to rule out any influence of the effects observed by any fungicidal action of the test compounds, it was additionally ensured that the tests proceed without fungal infection and without infection pressure. After the recovery phase had ended, the intensities of damage were rated visually compared to untreated, unstressed controls of the same age (in the case of drought stress) or the same growth stage (in the case of cold stress). The intensity of damage was first assessed as a percentage (100%=plants have died, 0%=like control plants). These values were then used to calculate the efficacy of the test compounds (=percentage reduction in the intensity of damage as a result of substance application) by the following formula: [formula] EF: efficacy (%) DVus: damage value of the untreated, stressed control DVts: damage value of the plants treated with test compound The tables below list mean values in each case from three results of the same test. Effects of selected compounds of the formula (I) under drought stress: TRZAS=Triticum aestivum

On to `NC(=O)c1cccc2[nH]c(C(F)(F)C(F)(F)F)nc12` [1-2, 2-(pentafluoroethyl)-1H-benzimidazole-4-carboxamide], for which the “EF (BRSNS), efficacy = percentage reduction in the intensity of damage” value in the assay with Brassica napus (BRSNS) (25 g/ha) is listed as greater than 5%. Also, the “EF (TRZAS), efficacy = percentage reduction in the intensity of damage” value in assay [1] (25 g/ha) is on record as greater than 5%.
For the molecule `NC(=O)c1cccc2[nH]c(C(F)(F)C(F)(F)C(F)(F)F)nc12` [1-17], the “EF (BRSNS), efficacy = percentage reduction in the intensity of damage” value in the assay with Brassica napus (BRSNS) (50 g/ha) is reported as greater than 5%. Besides, the “EF (TRZAS), efficacy = percentage reduction in the intensity of damage” value in assay [1] (250 g/ha) was greater than 5%.
